Tests used:
U266 = test: Cytotoxicity of EA in tumor cell line U266; assay type: cell-based; conditions: Homo sapiens, U-266, mean of at least two experiments
PC3 = test: Cytotoxicity of EA in tumor cell line PC3; assay type: cell-based; conditions: Homo sapiens, PC-3, mean of at least two experiments
[1] = test system: NFATc-mediated transcription; test: NFAT reporter assay in HEK293 cells; assay type: cell-based, human; conditions: 50 μM EA, 24 hours
Protocol: FIG. 1. Inhibition of Wnt/β-catenin signaling by EA. […] Cells were lysed and luciferase activity was quantified. Total protein levels were determined by Bradford Assay and serve as a control for total cell number. (B) HEK293 cells were co-transfected with TOPflash reporter construct, along with expression plasmids for Wnt1, Wnt3, LRP6, Dvl and β-catenin as indicated. […] (C) HEK293 cells were transfected with FOPflash reporter with or without an expression plasmid for β-catenin. […] (D) HEK293 cells were transfected with NFAT reporter and expression plasmid for NFATc. […] The results are expressed as fold induction of luciferase activity compared to the basal level, and are the means of three experiments±SEM. For screening of the drug library, HEK293 cells were grown for at least 24 hours in 10 cm plates prior to transfection. At 50% confluence, cells were transfected with 5 μg of TOPflash reporter, 1 μg expression vector for Dvl, 1 μg of control plasmid pCMXβgal and carrier DNA pcDNA3 plasmid for a total of 10 μg/plate. After transfection for 24 hours, cells were harvested and dispersed in 96-well microtiter plates. […] Then luciferase values were determined. In the Results section, data are expressed as fold stimulation of luciferase activity compared to the basal level. […]

LEF-1/β-catenin complex = molecular target: T1, LEF-1/β-catenin complex (Homo sapiens, UniProt Q9UJU2); test: Co-immunoprecipitation of the β-catenin complex in SW480 cells; assay type: cell-based; conditions: increasing EA, 16 hours
T1 construct: endogenous in cells; host or cells: SW480 cells
T1 sequence (Q9UJU2 whole entry, one chain of several): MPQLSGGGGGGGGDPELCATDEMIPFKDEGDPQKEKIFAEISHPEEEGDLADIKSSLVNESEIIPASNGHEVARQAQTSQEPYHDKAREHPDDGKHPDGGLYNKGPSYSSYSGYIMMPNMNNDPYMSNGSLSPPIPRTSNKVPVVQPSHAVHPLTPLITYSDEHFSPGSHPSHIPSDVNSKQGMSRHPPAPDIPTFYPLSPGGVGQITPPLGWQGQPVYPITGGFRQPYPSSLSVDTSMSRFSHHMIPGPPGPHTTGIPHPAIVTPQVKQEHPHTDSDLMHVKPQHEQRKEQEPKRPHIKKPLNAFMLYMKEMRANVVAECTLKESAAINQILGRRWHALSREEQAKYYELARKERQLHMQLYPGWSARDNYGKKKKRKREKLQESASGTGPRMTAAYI
Protocol: FIG. 7. EA destabilizes the LEF-1/β-catenin complex. (A) SW480 cells were treated with increasing amounts of EA for 16 hours. Cells were lysed, and IP was completed with anti-β-catenin monoclonal antibody. The immune complexes were analyzed by immunoblotting with anti-LEF-1, anti-α-catenin and anti-β-catenin antibodies. (B) EA inhibits Wnt/β-catenin signaling in SW480 cells. SW480 cells were transfected with TOPflash reporter and control plasmid pCMXβgal. After transfection for 24 hours, cells were treated with increasing concentrations of EA for another 24 hours as indicated. Cells were then harvested and luciferase values were determined. The results are expressed as relative luciferase activity (%) normalized to a β-galactosidase control.
Primary CLL cells and SW480 cells were treated with the indicated amounts of EA. Cells were washed twice with PBS and resuspended in 0.5 mL lysis buffer (20 mM Tris-HCl, pH 8.0/10% glycerol/5 mM MgCl2/0.15 M KCl/0.1% Nonidet P-40 with protease inhibitors). For CLL cells, lysates of 1 to 2×10^7 cells were incubated with anti-LEF-1 antibody at a 1:1000 dilution overnight at 4° C., and then with saturating amounts of protein G plus/protein A agarose beads (Calbiochem) at 4° C. for 2 hours before centrifugation at 15,000 g for 5 minutes. […]

MCF-7 = test: Cytotoxicity of EA in tumor cell line MCF-7; assay type: cell-based; conditions: Homo sapiens, MCF7, mean of at least two experiments
HCT116 = test: Cytotoxicity of EA in tumor cell line HCT116; assay type: cell-based; conditions: Homo sapiens, HCT-116, mean of at least two experiments
SK-Mel-28 = test: Cytotoxicity of EA in tumor cell line SK-Mel-28; assay type: cell-based; conditions: Homo sapiens, mean of at least two experiments
CLL cells = test: Levels of O2− or H2O2 in CLL cells treated with EA; assay type: cell-based, human; conditions: results not shown
HepG2 = test: Cytotoxicity of EA in tumor cell line HepG2; assay type: cell-based; conditions: Homo sapiens, mean of at least two experiments
Primary CLL cells = test: Cell viability assay (MTT) with primary CLL cells; conditions: 48 hours
[2] = test system: lymphoma and myeloma cells; conditions: Schmidt et al., 2009; cited from earlier work
[3] = test system: different tumor cell lines; test: Cytotoxicity of EA in different tumor cell lines (summary); assay type: cell-based; conditions: read-out: mean 50% inhibitory concentration (IC50) of EA in these cell lines; range over the tumor cell lines of Table 3
Fzd5 mRNA = test: Real-time PCR of Fzd5 in CLL cells; assay type: cell-based, human; conditions: CLL cells from three patients, 16 hours
A549 = test: Cytotoxicity of EA in tumor cell line A549; assay type: cell-based; conditions: Homo sapiens, mean of at least two experiments
LNCap = test: Cytotoxicity of EA in tumor cell line LNCap; assay type: cell-based; conditions: Homo sapiens, mean of at least two experiments
[4] = test system: LEF-1, cyclin D1 and fibronectin mRNA; test: Real-time PCR of Wnt target genes in CLL cells; assay type: cell-based, human; conditions: CLL cells from three patients, 16 hours

**Q.** Which IC50 (U266) does the source give for C=C(CC)C(=O)c1ccc(OCC(=O)O)c(Cl)c1Cl [Compound 1, Ethacrynic acid] here?
**A.** The IC50 was 90 µM.

**Q.** And the IC50 (PC3)?
**A.** Its IC50 is 67 µM.

**Q.** And the “effect on NFATc-mediated transcription from a NFAT reporter” value [1]?
**A.** The value was “did not block”.

**Q.** What about the “LEF-1 levels in the β-catenin complex” value (LEF-1/β-catenin complex) of the same molecule?
**A.** Its value is “decreased LEF-1 levels in the β-catenin complex in a concentration-dependent manner”.

**Q.** And the “α-catenin levels in the β-catenin complex” value (LEF-1/β-catenin complex)?
**A.** Its value is “little effect”.

**Q.** What about the IC50 (MCF-7) of the same molecule?
**A.** The IC50 was 63 µM.

**Q.** What about the IC50 (HCT116) of the same molecule?
**A.** Its IC50 is 58 µM.

**Q.** What about the IC50 (SK-Mel-28) of the same molecule?
**A.** The IC50 was 122 µM.

**Q.** What about the “levels of O2− or H2O2 in CLL cells” value (CLL cells) of the same molecule?
**A.** The value was “no significant increase”.

**Q.** And the IC50 (HepG2)?
**A.** Its IC50 is 223 µM.

**Q.** What about the EC50 (Primary CLL cells; read-out: CLL Inhibition EC50, CLL survival, MTT) of the same molecule?
**A.** The EC50 was 9.9 µM.

**Q.** What about the IC50 (Primary CLL cells; read-out: IC50-EA, Primary CLL cells from nine patients, mean) of the same molecule?
**A.** The IC50 was 8.56 µM.

**Q.** What about the induction of apoptosis [2] of the same molecule?
**A.** The induction of apoptosis was “significant induction of apoptosis”.

**Q.** And the IC50 [3]?
**A.** The IC50 was 40 to 200 µM.

**Q.** What about the Fzd5 expression (Fzd5 mRNA) of the same molecule?
**A.** Its Fzd5 expression is “dose-dependent enhancement”.

**Q.** And the IC50 (A549)?
**A.** Its IC50 is 178 µM.

**Q.** And the IC50 (LNCap)?
**A.** Its IC50 is 46 µM.

**Q.** What about the “LEF-1, cyclin D1 and fibronectin mRNA expression” value [4] of the same molecule?
**A.** Its value is “decreased”.

Source: patent US20110306671A1, “AMIDE DERIVATIVES OF ETHACRYNIC ACID” (The Regents of the The University of California, priority 2008, published 2011)
